Data: patent US8273890B2 (4SC AG, priority 2007, dated 2012)

Biological target: T1, recombinant Plk1 protein (Homo sapiens, UniProt P53350)
T1 construct: histidine tag (N); made in house; host or cells: SF9 insect cells
Experiment: Plk1 kinase activity inhibition assay (33P-ATP, alpha casein substrate, flash plates)
Format: biochemical
Conditions: enzymatic assay, 100 nM Li-ATP, 80 minutes at 30° C.
How it was run: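 N-terminally His-tagged human Plk1 from SF9 cells (50–100 ng/well) phosphorylated alpha casein (500 ng/well) with 100 nM ATP including 33P-ATP at pH 7.5, with Mg2+ and Mn2+, 80 min at 30 °C. 33P incorporation read on scintillator-coated flash plates; IC50 derived.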

T1 sequence (P53350 whole entry): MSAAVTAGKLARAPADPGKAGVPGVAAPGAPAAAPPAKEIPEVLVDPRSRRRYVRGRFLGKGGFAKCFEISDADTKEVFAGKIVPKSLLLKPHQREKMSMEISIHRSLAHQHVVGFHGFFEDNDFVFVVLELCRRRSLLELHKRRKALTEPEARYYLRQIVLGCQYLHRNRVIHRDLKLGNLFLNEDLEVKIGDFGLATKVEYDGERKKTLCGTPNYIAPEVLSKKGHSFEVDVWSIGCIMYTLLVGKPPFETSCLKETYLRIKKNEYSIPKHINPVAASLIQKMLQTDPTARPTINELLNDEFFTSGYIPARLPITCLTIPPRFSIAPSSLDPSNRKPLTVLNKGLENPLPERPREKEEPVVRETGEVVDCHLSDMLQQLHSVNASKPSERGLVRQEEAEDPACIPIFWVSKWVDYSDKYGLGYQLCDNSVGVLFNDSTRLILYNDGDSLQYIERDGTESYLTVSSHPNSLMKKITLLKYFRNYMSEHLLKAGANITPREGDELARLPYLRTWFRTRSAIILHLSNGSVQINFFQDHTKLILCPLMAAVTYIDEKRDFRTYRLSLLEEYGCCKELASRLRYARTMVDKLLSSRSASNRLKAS

`C=CCN1CCN(Cc2cc3c(cn2)ncn3-c2cc(O[C@H](C)c3ccccc3C(F)(F)F)c(C(N)=O)s2)CC1` [Example 122, 5-{6-[(4-allylpiperazin-1-yl)methyl]-1H-imidazo[4,5-c]pyridin-1-yl}-3-{(1R)-1-[2-(trifluoromethyl)phenyl]ethoxy}thiophene-2-carboxamide] showed an IC50 of under 10 nM.

For `C[C@@H](Oc1cc(-n2cnc3cnc(CN4CCN(CCO)CC4)cc32)sc1C(N)=O)c1ccccc1C(F)(F)F` [Example 61, 5-(6-{[4-(2-hydroxyethyl)piperazin-1-yl]methyl}-1H-imidazo[4,5-c]pyridin-1-yl)-3-{(1R)-1-[2-(trifluoromethyl)phenyl]ethoxy}thiophene-2-carboxamide], the IC50 was under 10 nM.

Work on `CC(c1ccccc1)N1CCN(Cc2cc3c(cn2)ncn3-c2cc(O[C@H](C)c3ccccc3C(F)(F)F)c(C(N)=O)s2)CC1` (stereo partly drawn) [Example 119, 5-(6-{[4-(1-phenylethyl)piperazin-1-yl]methyl}-1H-imidazo[4,5-c]pyridin-1-yl)-3-{(1R)-1-[2-(trifluoromethyl)phenyl]ethoxy}thiophene-2-carboxamide] yielded an IC50 of under 10 nM.

For `NC(=O)c1sc(-n2cnc3cc(CO)ncc32)cc1OCc1ccccc1C(F)(F)F` [Example 10, 5-[6-(Hydroxymethyl)-3H-imidazo[4,5-c]pyridin-3-yl]-3-{[2-(trifluoromethyl)benzyl]oxy}thiophene-2-carboxamide], the IC50 was 100 to 1000 nM.

`NC(=O)c1sc(-n2cnc3ccncc32)cc1OCc1ccccc1F` [Example 31, 3-[(2-fluorobenzyl)oxy]-5-(3H-imidazo[4,5-c]pyridin-3-yl)thiophene-2-carboxamide] was tested, and the IC50 was 10 to 100 nM.

For `CC1CCN(Cc2cc3c(cn2)ncn3-c2cc(O[C@H](C)c3ccccc3C(F)(F)F)c(C(N)=O)s2)CC1` [Example 93, 5-{6-[(4-methylpiperidin-1-yl)methyl]-1H-imidazo[4,5-c]pyridin-1-yl}-3-{(1R)-1-[2-(trifluoromethyl)phenyl]ethoxy}thiophene-2-carboxamide], the IC50 was 10 to 100 nM.

Work on `CC1CN(Cc2cc3c(cn2)ncn3-c2cc(O[C@H](C)c3ccccc3C(F)(F)F)c(C(N)=O)s2)CCN1C` (stereo partly drawn) [Example 74, 5-{6-[(3,4-dimethylpiperazin-1-yl)methyl]-1H-imidazo[4,5-c]pyridin-1-yl}-3-{(1R)-1-[2-(trifluoromethyl)phenyl]ethoxy}thiophene-2-carboxamide] yielded an IC50 of under 10 nM.

`C[C@@H](Oc1cc(-n2cnc3cc(CNC4CC4)ncc32)sc1C(N)=O)c1ccccc1C(F)(F)F` [Example 115, 5-{6-[(cyclopropylamino)methyl]-3H-imidazo[4,5-c]pyridin-3-yl}-3-{(1R)-1-[2-(trifluoromethyl)phenyl]ethoxy}thiophene-2-carboxamide] gave an IC50 of 10 to 100 nM.

`COc1cc2ncn(-c3cc(OCc4ccccc4C(F)(F)F)c(C(N)=O)s3)c2cn1` [Example 17, 5-(6-Methoxy-3H-imidazo[4,5-c]pyridin-3-yl)-3-{[2-(trifluoromethyl)benzyl]oxy}thiophene-2-carboxamide] gave an IC50 of 10 to 100 nM.

With `C[C@@H](Oc1cc(-n2cnc3cnc(CO)cc32)sc1C(N)=O)c1ccccc1F` [Example 55, 3-[(1R)-1-(2-fluorophenyl)ethoxy]-5-[6-(hydroxymethyl)-1H-imidazo[4,5-c]pyridin-1-yl]thiophene-2-carboxamide] the IC50 was under 10 nM.

With `C[C@@H](Oc1cc(-n2cnc3cnc(CN4CCN(CCN(C)C)CC4)cc32)sc1C(N)=O)c1ccccc1C(F)(F)F` [Example 70, 5-[6-({4-[2-(dimethylamino)ethyl]piperazin-1-yl}methyl)-1H-imidazo[4,5-c]pyridin-1-yl]-3-{(1R)-1-[2-(trifluoromethyl)phenyl]ethoxy}thiophene-2-carboxamide] the IC50 was 10 to 100 nM.

Compound `CCC(Oc1cc(-n2cnc3cnc(CN4CCN(CCOC)CC4)cc32)sc1C(N)=O)c1ccccc1Cl` (stereo not drawn) [Example 139, 3-{[1-(2-chlorophenyl)propyl]oxy}-5-(6-{[4-(2-methoxyethyl)piperazin-1-yl]methyl}-1H-imidazo[4,5-c]pyridin-1-yl)thiophene-2-carboxamide] has an IC50 of 10 to 100 nM.

Compound `CC(=O)N1CCN(Cc2cc3c(cn2)ncn3-c2cc(O[C@H](C)c3ccccc3C(F)(F)F)c(C(N)=O)s2)CC1` [Example 118, 5-{6-[(4-acetylpiperazin-1-yl)methyl]-1H-imidazo[4,5-c]pyridin-1-yl}-3-{(1R)-1-[2-(trifluoromethyl)phenyl]ethoxy}thiophene-2-carboxamide] has an IC50 of 10 to 100 nM.

Compound `CCc1ccccc1COc1cc(-n2cnc3cnc(CN4CCN(CC)CC4)cc32)sc1C(N)=O` [Example 154, 3-[(2-ethylbenzyl)oxy]-5-{6-[(4-ethylpiperazin-1-yl)methyl]-1H-imidazo[4,5-c]pyridin-1-yl}thiophene-2-carboxamide] has an IC50 of 10 to 100 nM.

Compound `CC(Oc1cc(-n2cnc3cnc(CO)cc32)sc1C(N)=O)c1ccc(F)cc1C(F)(F)F` (stereo not drawn) [Example 51, 3-{1-[4-fluoro-2-(trifluoromethyl)phenyl]ethoxy}-5-[6-(hydroxymethyl)-1H-imidazo[4,5-c]pyridin-1-yl]thiophene-2-carboxamide] has an IC50 of under 10 nM.

`CCCNCc1cc2c(cn1)ncn2-c1cc(O[C@H](C)c2ccccc2C(F)(F)F)c(C(N)=O)s1` [Example 113] gave an IC50 of 10 to 100 nM.

Compound `C[C@@H](Oc1cc(-n2cnc3cnc(CO)cc32)sc1C(N)=O)c1ccccc1Br` [Example 52, 3-[(1R)-1-(2-bromophenyl)ethoxy]-5-[6-(hydroxymethyl)-1H-imidazo[4,5-c]pyridin-1-yl]thiophene-2-carboxamide] has an IC50 of under 10 nM.

In the case of `C[C@@H](Oc1cc(-n2cnc3cnc(CN4CCN(CC(=O)N(C)c5ccccc5)CC4)cc32)sc1C(N)=O)c1ccccc1C(F)(F)F` [Example 86, 5-{6-[(4-{2-[methyl(phenyl)amino]-2-oxoethyl}piperazin-1-yl)methyl]-1H-imidazo[4,5-c]pyridin-1-yl}-3-{(1R)-1-[2-(trifluoromethyl)phenyl]ethoxy}thiophene-2-carboxamide], the IC50 is reported as 10 to 100 nM.

In the case of `C[C@@H](Oc1cc(-n2cnc3cnc(CN4CCN(CCO)CC4)cc32)sc1C(N)=O)c1ccccc1Cl` [Example 127, 3-[(1R)-1-(2-chlorophenyl)ethoxy]-5-(6-{[4-(2-hydroxyethyl)piperazin-1-yl]methyl}-1H-imidazo[4,5-c]pyridin-1-yl)thiophene-2-carboxamide], the IC50 is reported as under 10 nM.

With `CCc1ccccc1COc1cc(-n2cnc3cnc(CN4CCN(C)CC4)cc32)sc1C(N)=O` [Example 153, 3-[(2-ethylbenzyl)oxy]-5-{6-[(4-methylpiperazin-1-yl)methyl]-1H-imidazo[4,5-c]pyridin-1-yl}thiophene-2-carboxamide] the IC50 was under 10 nM.

For `N#Cc1ccccc1COc1cc(-n2cnc3cnccc32)sc1C(N)=O` [Example 39, 3-[(2-cyanobenzyl)oxy]-5-(1H-imidazo[4,5-c]pyridin-1-yl)thiophene-2-carboxamide], the IC50 was 10 to 100 nM.

For `CCOc1ccc(OCC)c(COc2cc(-n3cnc4cnc(CN5CCN(C)CC5)cc43)sc2C(N)=O)c1` [Example 155, 3-[(2,5-diethoxybenzyl)oxy]-5-{6-[(4-methylpiperazin-1-yl)methyl]-1H-imidazo[4,5-c]pyridin-1-yl}thiophene-2-carboxamide], the IC50 was 100 to 1000 nM.

With `CC(Oc1cc(-n2cnc3cc(CNC4CCC4)ncc32)sc1C(N)=O)c1ccccc1C(F)(F)F` (stereo not drawn) [Example 111, 5-{6-[(cyclobutylamino)methyl]-3H-imidazo[4,5-c]pyridin-3-yl}-3-{-1-[2-(trifluoromethyl)phenyl]ethoxy}thiophene-2-carboxamide] the IC50 was 100 to 1000 nM.

In the case of `C[C@H](Oc1cc(-n2cnc3cnc(CN4CCN(C)CC4)cc32)sc1C(N)=O)c1ccccc1C(F)(F)F` [Example 48, 5-{6-[(4-methylpiperazin-1-yl)methyl]-1H-imidazo[4,5-c]pyridin-1-yl}-3-{(1S)-1-[2-(trifluoromethyl)phenyl]ethoxy}thiophene-2-carboxamide], the IC50 is reported as 10 to 100 nM.

For `C[C@@H](Oc1cc(-n2cnc3cnc(CN4CCN(c5cnccn5)CC4)cc32)sc1C(N)=O)c1ccccc1C(F)(F)F` [Example 84, 5-{6-[(4-pyrazin-2-ylpiperazin-1-yl)methyl]-1H-imidazo[4,5-c]pyridin-1-yl}-3-{(1R)-1-[2-(trifluoromethyl)phenyl]ethoxy}thiophene-2-carboxamide], the IC50 was 10 to 100 nM.

Compound `Cc1ccccc1C(C)Oc1cc(-n2cnc3cnc(CO)cc32)sc1C(N)=O` (stereo not drawn) [Example 110, 5-[6-(hydroxymethyl)-1H-imidazo[4,5-c]pyridin-1-yl]-3-[1-(2-methylphenyl)ethoxy]thiophene-2-carboxamide] has an IC50 of under 10 nM.

Compound `C[C@@H](Oc1cc(-n2cnc3cnc(CNC(C)(C)C)cc32)sc1C(N)=O)c1ccccc1C(F)(F)F` [Example 114, 5-{6-[(tert-butylamino)methyl]-1H-imidazo[4,5-c]pyridin-1-yl}-3-{(1R)-1-[2-(trifluoromethyl)phenyl]ethoxy}thiophene-2-carboxamide] has an IC50 of 10 to 100 nM.

Work on `CCOc1ccc(OCC)c(COc2cc(-n3cnc4cnc(CO)cc43)sc2C(N)=O)c1` [Example 109, 3-[(2,5-diethoxybenzyl)oxy]-5-[6-(hydroxymethyl)-1H-imidazo[4,5-c]pyridin-1-yl]thiophene-2-carboxamide] yielded an IC50 of 1000 to 10000 nM.

`CCC(Oc1cc(-n2cnc3cnc(CN4CCN(C(=O)N(C)C)CC4)cc32)sc1C(N)=O)c1ccccc1Cl` (stereo not drawn) [Example 137, 4-{[1-(5-carbamoyl-4-{[1-(2-chlorophenyl)propyl]oxy}-2-thienyl)-1H-imidazo[4,5-c]pyridin-6-yl]methyl}-N,N-dimethylpiperazine-1-carboxamide] gave an IC50 of 10 to 100 nM.

Compound `CCNCc1cc2ncn(-c3cc(O[C@H](C)c4ccccc4C(F)(F)F)c(C(N)=O)s3)c2cn1` [Example 117, 5-{6-[(ethylamino)methyl]-3H-imidazo[4,5-c]pyridin-3-yl}-3-{(1R)-1-[2-(trifluoromethyl)phenyl]ethoxy}thiophene-2-carboxamide] has an IC50 of 100 to 1000 nM.
